Assay results as given in US20240270821A1, “GIP/GLP1/GCG TRI-RECEPTOR AGONISTS AND USES THEREOF” (priority 2023, published 2024).
Read-outs that look alike come from different tables or passages of the source. Starred links: 1 amine or outer side, 2 acyl side, 3 side chain; linkers in the order of their positions; H or OH if unused. Non-standard residues stand in square brackets, D forms with d. Groups on a side chain read outwards from the residue. *: point of attachment. C20 diacid = O=C(O)CCCCCCCCCCCCCCCCCCC(=O)*; C18 diacid = O=C(O)CCCCCCCCCCCCCCCCC(=O)*; Phe(4-CN) = N#Cc1ccc(C[C@H](N)C(=O)O)cc1; αMePhe(2-F) = C[C@](N)(Cc1ccccc1F)C(=O)O; γGlu = O=C(O)[C@H](CCC(=O)[*:2])N[*:1]; αMe4Pal = C[C@](N)(Cc1ccncc1)C(=O)O; αMeY = C[C@](N)(Cc1ccc(O)cc1)C(=O)O; 4Pal = N[C@@H](Cc1ccncc1)C(=O)O; αMeL = CC(C)C[C@](C)(N)C(=O)O; αMeS = C[C@](N)(CO)C(=O)O; Orn = NCCC[C@H](N)C(=O)O; AEEA = NCCOCCOCC(=O)O; Aib = CC(C)(N)C(=O)O

What was measured:
Assay type in all cases: cell-based
[1] = target: hGcgR (Homo sapiens, UniProt P47871); experiment: Functional cAMP activation in the presence of 0.1% casein (no HSA); settings: read-out: Relative cAMP EC50, hGcgR;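 note: intracellular cAMP rise after 30 min at 37 °C, read by HTRF against a cAMP standard curve, scaled from buffer only (0%) to maximal control ligand response (100%)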
[2] = target: T1, hGIPR (Homo sapiens, UniProt P48546); experiment: as above; settings: read-out: Relative cAMP EC50, hGIPR;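 note: intracellular cAMP rise after 30 min at 37 °C read by HTRF against a standard curve, scaled between buffer alone (0%) and top control ligand concentration (100%), four-parameter fit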
T1 sequence (P48546 22-466): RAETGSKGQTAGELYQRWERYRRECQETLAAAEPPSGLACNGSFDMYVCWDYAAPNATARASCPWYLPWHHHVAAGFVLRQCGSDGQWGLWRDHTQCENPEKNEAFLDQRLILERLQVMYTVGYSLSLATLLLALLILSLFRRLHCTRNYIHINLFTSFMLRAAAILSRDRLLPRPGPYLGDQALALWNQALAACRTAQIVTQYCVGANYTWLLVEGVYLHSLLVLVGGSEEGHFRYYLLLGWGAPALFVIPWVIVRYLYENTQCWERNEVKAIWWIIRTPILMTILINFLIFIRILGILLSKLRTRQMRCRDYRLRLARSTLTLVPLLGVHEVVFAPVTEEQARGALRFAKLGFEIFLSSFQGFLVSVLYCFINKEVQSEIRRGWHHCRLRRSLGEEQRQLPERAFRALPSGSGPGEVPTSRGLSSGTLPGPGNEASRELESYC

[3] = target: T1, hGIPR; experiment: Functional cAMP activity in the presence of 1% HSA; settings: read-out: cAMP Rel EC50, hGIPR
[4] = target: T2, hGLP-1R (Homo sapiens, UniProt P43220); experiment: Functional cAMP activation in the presence of 0.1% casein (no HSA); settings: read-out: Relative cAMP EC50, hGLP-1R;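 note: intracellular cAMP rise after 30 min at 37 °C read by HTRF, normalized between buffer only (0%) and maximal control ligand (100%), four-parameter variable-slope fit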
[5] = target: human GcgR (Homo sapiens, UniProt P47871); experiment: Functional cAMP activity in the presence of 1% HSA; settings: read-out: cAMP Rel EC50, hGcgR
[6] = target: T2, hGLP-1R; experiment: Functional cAMP activity in the presence of 1% HSA; settings: read-out: cAMP Rel EC50, hGLP-1R
[7] = in the presence of 0.1% casein (no HSA), geometric mean
[8] = 0.1% casein, no HSA, geometric mean

T2 sequence (P43220 24-463): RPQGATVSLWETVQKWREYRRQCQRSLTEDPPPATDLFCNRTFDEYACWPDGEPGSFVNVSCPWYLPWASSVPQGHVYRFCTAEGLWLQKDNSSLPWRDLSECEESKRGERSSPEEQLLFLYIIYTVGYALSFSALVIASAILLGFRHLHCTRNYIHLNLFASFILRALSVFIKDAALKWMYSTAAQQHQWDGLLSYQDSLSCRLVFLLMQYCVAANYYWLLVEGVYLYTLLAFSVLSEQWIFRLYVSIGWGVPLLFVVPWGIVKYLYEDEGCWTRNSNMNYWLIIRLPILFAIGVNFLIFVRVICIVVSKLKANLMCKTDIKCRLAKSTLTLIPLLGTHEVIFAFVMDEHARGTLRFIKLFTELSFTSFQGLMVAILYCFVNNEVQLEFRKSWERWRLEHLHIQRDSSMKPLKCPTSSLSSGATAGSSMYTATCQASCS
Sequence of human GcgR (P47871 26-477): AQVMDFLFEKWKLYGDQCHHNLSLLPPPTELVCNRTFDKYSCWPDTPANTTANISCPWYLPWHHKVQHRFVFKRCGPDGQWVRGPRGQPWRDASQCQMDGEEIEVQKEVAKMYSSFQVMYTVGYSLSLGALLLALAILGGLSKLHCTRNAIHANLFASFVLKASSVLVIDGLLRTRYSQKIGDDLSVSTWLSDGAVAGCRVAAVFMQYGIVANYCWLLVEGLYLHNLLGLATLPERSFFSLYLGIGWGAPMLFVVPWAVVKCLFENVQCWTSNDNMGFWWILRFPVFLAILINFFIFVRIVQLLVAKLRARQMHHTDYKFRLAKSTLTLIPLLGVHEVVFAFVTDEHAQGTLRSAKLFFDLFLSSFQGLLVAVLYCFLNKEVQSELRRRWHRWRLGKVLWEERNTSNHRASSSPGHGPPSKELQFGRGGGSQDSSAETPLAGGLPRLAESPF
Sequence of hGcgR (P47871 26-477): as above

| Substance | EC50 [1, 7] [nM] | EC50 [2, 7] [nM] | EC50 [3] [nM] | EC50 [4, 7] [nM] | EC50 [5] [nM] | EC50 [6] [nM] | EC50 [1] [nM] | EC50 [2] [nM] | EC50 [4] [nM] | EC50 [1, 8] [nM] | EC50 [2, 8] [nM] | EC50 [4, 8] [nM] |
| --- | --- | --- | --- | --- | --- | --- | --- | --- | --- | --- | --- | --- |
| H-Y[Aib]QGT[αMePhe(2-F)]TSD[4Pal][αMeS]I[αMeL]LD[Orn]K([γGlu-γGlu-C18 diacid])AQ[αMe4Pal]EFI[dE][αMeY]LVEGGPSSGEPPPSGE-NH2 [Example 1161] | 2.19 | 0.00973 | 0.733 | 0.39 | 217 | 35.5 |  |  |  |  |  |  |
| H-Y[Aib]QGT[αMePhe(2-F)]TSD[4Pal][αMeS]I[αMeL]LD[Orn]K([γGlu-γGlu-C18 diacid])AQ[αMe4Pal]EFI[dE][αMeY]LVEGGPSSGEPPPSGGGE-NH2 [Example 739] |  |  | 0.507 |  | 155 | 27.1 | 1.59 | 0.015 | 0.348 |  |  |  |
| H-Y[Aib]QGT[αMePhe(2-F)]TSD[4Pal][αMeS]I[αMeL]LD[Orn]K([γGlu-γGlu-C18 diacid])AQ[αMe4Pal]EFI[dE][αMeY]LVEGGPSSGEPPPSGSE-NH2 [Example 1163] | 1.75 | 0.00951 | 0.721 | 0.449 | 163 | 35.4 |  |  |  |  |  |  |
| H-Y[Aib]QGT[αMePhe(2-F)]TSD[4Pal][αMeS]I[αMeL]LD[Orn]K([γGlu-γGlu-C18 diacid])AQ[αMe4Pal]EFI[dE][αMeY]LVEGGPSSGEPPPSGTGE-NH2 [Example 738] |  |  | 0.64 |  | 162 | 28.2 | 1.87 | 0.00991 | 0.368 |  |  |  |
| H-Y[Aib]QGT[αMePhe(2-F)]TSD[4Pal][αMeS]I[αMeL]LD[Orn]QAQ[αMe4Pal]EFI[dE][αMeY]LIEGGPSSGAPPPSGS-NH2 [Example 1232] |  |  | 0.00687 |  | 8.53 | 0.694 |  |  |  | 6.69 | 0.00893 | 0.723 |
| H-Y[Aib]QGT[αMePhe(2-F)]TSD[4Pal][αMeS]I[αMeL]LD[Orn]QAQ[αMe4Pal]EFI[dE][αMeY]LIEGGPSSGAPPPSGSE-NH2 [Example 1233] |  |  | 0.00988 |  | 9.9 | 1.06 |  |  |  | 9.48 | 0.012 | 1.09 |
| H-Y[Aib]QGT[αMePhe(2-F)]TSD[4Pal][αMeS]I[αMeL]LD[Orn]QAQ[αMe4Pal]EFI[dE][αMeY]LVEGGPSSGAPPPSGS-NH2 [Example 1231] |  |  | 0.00994 |  | 17.1 | 1.22 |  |  |  | 15.7 | 0.0146 | 1.23 |
| H-Y[Aib]QGT[αMePhe(2-F)]TSD[4Pal][αMeS]I[αMeL]LD[Orn][Orn]([AEEA-γGlu-C18 diacid])AQ[αMe4Pal]EFI[dE][αMeY]LIEGGPSSGAPPPSGGGE-NH2 [Example 1213] |  |  | 0.616 |  | 268 | 44 |  |  |  | 1.69 | 0.00721 | 0.423 |
| H-Y[Aib]QGT[αMePhe(2-F)]TSD[4Pal][αMeS]I[αMeL]LD[Orn][Orn]([AEEA-γGlu-C18 diacid])AQ[αMe4Pal]EFI[dE][αMeY]LIEGGPSSGAPPPSGS-NH2 [Example 1211] |  |  | 0.489 |  | 211 | 33.2 |  |  |  | 1.45 | 0.00592 | 0.276 |
| H-Y[Aib]QGT[αMePhe(2-F)]TSD[4Pal][αMeS]I[αMeL]LD[Orn][Orn]([AEEA-γGlu-C18 diacid])AQ[αMe4Pal]EFI[dE][αMeY]LIEGGPSSGAPPPSGSE-NH2 [Example 1212] |  |  | 0.614 |  | 230 | 38.2 |  |  |  | 1.71 | 0.00702 | 0.357 |
| H-Y[Aib]QGT[αMePhe(2-F)]TSD[Phe(4-CN)]SILLDKQAQK([AEEA-AEEA-γGlu-C20 diacid])AFIEYLLEGGPSSGEPPPSAG-NH2 [Example 350] | 10.4 | 0.106 | 33.6 | 0.776 | 3760 | 360 |  |  |  |  |  |  |
| H-Y[Aib]QGT[αMePhe(2-F)]TSD[Phe(4-CN)]SILLDKQAQK([AEEA-AEEA-γGlu-C20 diacid])AFIQYLLEGGPSSGEPPPSEG-NH2 [Example 353] | 11 | 0.127 | 53.7 | 0.634 | 3080 | 222 |  |  |  |  |  |  |
